Molecules are shown by their SMILES.

Among the data in patent US20110130432A1, “Heterocyclic Carboxamides For Use As Thrombin Inhibitors” (ASTRAZENECA AB, priority 2008, published 2011) are IC50 values, retold here.

This test concerns the target T1, Human α-thrombin (Homo sapiens, UniProt P00734).
T1 construct: Human α-thrombin; purchased Sigma Chemical Co. or Hematologic Technologies
The experiment in a line: Test A: Determination of Thrombin Inhibition with a Chromogenic, Robotic Assay. It is filed as biochemical. The settings on record: chromogenic substrate S-2366 0.30 mmol/L, α-thrombin 0.020 NIHU/mL, 40 minutes incubation at 37° C. As to the method:
Determination of Thrombin Inhibition with a Chromogenic, Robotic Assay
The thrombin inhibitor potency is measured with a chromogenic substrate method, in a Plato 3300 robotic microplate processor (Rosys AG, CH-8634 Hombrechtikon, Switzerland), using 96-well, half volume microtitre plates (Costar, Cambridge, Mass., USA; Cat No 3690). Stock solutions of test substance in DMSO (72 μL), 0.1-1 mmol/L, are diluted serially 1:3 (24+48 μL) with DMSO to obtain ten different concentrations, which are analyzed as samples in the assay. 2 μL of test sample is diluted with 124 μL assay buffer, 12 μL of chromogenic substrate solution (S-2366, Chromogenix, Mölndal, Sweden) in assay buffer and finally 12 μL of α-thrombin solution (Human α-thrombin, Sigma Chemical Co. or Hematologic Technologies) in assay buffer, are added, and the samples mixed. The final assay concentrations are: test substance […], S-2366 0.30 mmol/L, α-thrombin 0.020 NIHU/mL The linear absorbance increment during 40 minutes incubation at 37° C. is used for calculation of percentage inhibition for the test samples, as compared to blanks without inhibitor. The IC50 value, corresponding to the inhibitor concentration which causes 50% inhibition of the thrombin activity, is calculated from a log concentration vs. % inhibition curve.

For orientation: IC50 means the concentration that inhibits the measured activity by half. Regarding `CC(C)CC[C@@H](O)C(=O)N1OCC[C@H]1C(=O)NCc1cc(Cl)ccc1-n1cnnn1` [Example 39, (3S)—N-[5-Chloro-2-(1H-tetrazol-1-yl)benzyl]-2-[(2R)-2-hydroxy-5-methylhexanoyl]isoxazolidine-3-carboxamide], it took 13 nM to reach half-maximal inhibition (IC50). In other words, the double-digit nanomolar range.

`CC(C)(C)OC[C@@H](O)C(=O)N1OCC[C@H]1C(=O)NCc1cc(Cl)ccc1-n1cnnn1` [Example 40, (3S)-2-[(2R)-3-tert-Butoxy-2-hydroxypropanoyl]-N-[5-chloro-2-(1H-tetrazol-1-yl)benzyl]isoxazolidine-3-carboxamide]: the midpoint of inhibition, the IC50, lay at 44 nM. Compared with the last molecule, the IC50 is about 3.4-fold higher.

The molecule `O=C(NCc1cc(Cl)ccc1-n1cnnn1)[C@@H]1CCON1C(=O)[C@H](O)C1CCCC1` [Example 41, (3S)—N-[5-Chloro-2-(1H-tetrazol-1-yl)benzyl]-2-[(2R)-2-cyclopentyl-2-hydroxyacetyl]isoxazolidine-3-carboxamide] showed an IC50 of 41 nM.

For the molecule `O=C(NCc1cc(Cl)ccc1-n1cnnn1)[C@@H]1CCON1C(=O)[C@H](O)C1CCCCC1` [Example 42, (3S)—N-[5-Chloro-2-(1H-tetrazol-1-yl)benzyl]-2-[(2R)-2-cyclohexyl-2-hydroxyacetyl]isoxazolidine-3-carboxamide], the IC50 was found to be 21 nM.

The molecule `CC1(C[C@@H](O)C(=O)N2OCC[C@H]2C(=O)NCc2cc(Cl)ccc2-n2cnnn2)CC1` [Example 43, (3S)—N-[5-Chloro-2-(1H-tetrazol-1-yl)benzyl]-2-[(2R)-2-hydroxy-3-(1-methylcyclopropyl)propanoyl]isoxazolidine-3-carboxamide] came in with an IC50 of 68 nM. Against the preceding molecule, the IC50 is about 3.2-fold higher.

The molecule `O=C(NCc1cc(Cl)ccc1-n1cnnn1)[C@@H]1CCON1C(=O)[C@H](O)Cc1ccccc1` [Example 47, (3S)—N-[5-Chloro-2-(1H-tetrazol-1-yl)benzyl]-2-[(2R)-2-hydroxy-3-phenylpropanoyl]isoxazolidine-3-carboxamide] had an IC50 of 80 nM.

`N#Cc1cccc(C(O)C(=O)N2OCC[C@H]2C(=O)NCc2cc(Cl)ccc2-n2cnnn2)c1` (stereo partly drawn) [Example 48, (3S)—N-[5-Chloro-2-(1H-tetrazol-1-yl)benzyl]-2-[(3-cyanophenyl)(hydroxy)acetyl]isoxazolidine-3-carboxamide] gave an IC50 of 92 nM.

As to `O=C(NCc1cc(Cl)ccc1-n1cnnn1)[C@@H]1CCNN1C(=O)C(O)c1ccccc1F` (stereo partly drawn) [Example 50, (3S)—N-[5-Chloro-2-(1H-tetrazol-1-yl)benzyl]-2-[(2-fluorophenyl)(hydroxy)acetyl]pyrazolidine-3-carboxamide], the IC50 stood at 79 nM. This IC50 and that of the molecule before are within 1.5-fold of each other.

`O=C(NCc1cc(Cl)ccc1-n1cnnn1)[C@@H]1CCNN1C(=O)C(O)c1ccc(F)cc1F` (stereo partly drawn) [Example 51, (3S)—N-[5-Chloro-2-(1H-tetrazol-1-yl)benzyl]-2-[(2,4-difluorophenyl)(hydroxy)acetyl]pyrazolidine-3-carboxamide] registered an IC50 of 63 nM.

`O=C(NCc1cc(Cl)ccc1-n1cnnn1)[C@@H]1CCNN1C(=O)[C@H](O)c1ccc(F)cc1` [Example 52, (3S)—N-[5-Chloro-2-(1H-tetrazol-1-yl)benzyl]-2-[(2R)-2-(4-fluorophenyl)-2-hydroxyacetyl]pyrazolidine-3-carboxamide] returned an IC50 of 8.4 nM.

Molecule `O=C(NCc1cc(Cl)ccc1-n1cnnn1)[C@@H]1CCNN1C(=O)C1(O)CCOc2ccccc21` (stereo partly drawn) [Example 53, (3S)—N-[5-Chloro-2-(1H-tetrazol-1-yl)benzyl]-2-[(4-hydroxy-3,4-dihydro-2H-chromen-4-yl)carbonyl]pyrazolidine-3-carboxamide] gave an IC50 of 240 nM.

`O=C(NCc1cc(Cl)ccc1-n1cnnn1)[C@@H]1CCNN1C(=O)[C@H](O)C1CCCCC1` [Example 55, (3S)—N-[5-Chloro-2-(1H-tetrazol-1-yl)benzyl]-2-[(2R)-2-cyclohexyl-2-hydroxyacetyl]pyrazolidine-3-carboxamide]: the IC50 amounted to 8.4 nM. This IC50 lies about 29-fold lower than the previous one.

Molecule `O=C(NCc1cc(Cl)ccc1-n1cnnn1)[C@@H]1CCNN1C(=O)[C@H](O)Cc1ccccc1` [Example 56, (3S)—N-[5-Chloro-2-(1H-tetrazol-1-yl)benzyl]-2-[(2R)-2-hydroxy-3-phenylpropanoyl]pyrazolidine-3-carboxamide] gave an IC50 of 79 nM.
